Several values for one entry are separate records, joined by “and”; a condition that tells them apart may be missing. Identical values can stand only once.
Assay: In vivo toxicity studies (body and organ weights, hematology, clinical chemistry, histopathology)
Settings: for CHOL, % ChVh / Ca, % ChVh / Cl, % ChVh / GLUC, % ChVh / K, % ChVh / Na, % ChVh / Na/K, % ChVh / P, % ChVh / CHOL, Mean / Ca, Mean / Cl, Mean / GLUC, Mean / K, Mean / Na, Mean / P, Mean: 0.2 mg/kg Female
Method: Toxicity studies. Eight week-old C57Bl/6NTac female mice were randomly assigned to either control or treatment groups. Each treatment group received one daily dose of test article through i.p. injection over 5 consecutive days. Toxicity was monitored by weight loss and daily clinical observation for the 14 days following test article administration. 24 hours after the last test article administration 4 mice in each group were sacrificed and clinical chemistry, hematology and tissue specific histopathology were done at autopsy. The remaining mice (n=2 per group) were kept under observation for an additional 13 days; at that point all mice were sacrificed and clinical chemistry, hematology and tissue specific histopathology were done at time of autopsy.
D) KOPT-K1 xenograft studies.

[1] = 0.2 mg/kg, female, Day 5, % change of mean vs vehicle
[2] = 0.2 mg/kg, female, Day 5, fold change of mean vs vehicle
[3] = 0.2 mg/kg, female, Day 5, group mean
[4] = 0.2 mg/kg, female, Day 5, individual animals

(±)-CR-31-B
CHOL, % ChVh (Day 5, change vs vehicle): 0.0% | Ca, % ChVh (Day 5, change vs vehicle): 2.2% | Cl, % ChVh (Day 5, change vs vehicle): 0.6% | GLUC, % ChVh (Day 5, change vs vehicle): 1.8% | K, % ChVh (Day 5, change vs vehicle): −4.5% | Na, % ChVh (Day 5, change vs vehicle): −0.2% | Na/K, % ChVh (Day 5, change vs vehicle): 1.4% | P, % ChVh (Day 5, change vs vehicle): −14.6% | CHOL, Mean (Day 5, group mean, N 4): 66.0 mg/dL | Ca, Mean (Day 5, group mean, N 4): 9.1 mg/dL | Cl, Mean (Day 5, group mean, N 4): 114.0 mEq/L | GLUC, Mean (Day 5, group mean, N 4): 297.3 mg/dL | K, Mean (Day 5, group mean, N 4): 4.2 mEq/L | Na, Mean (Day 5, group mean, N 4): 149.0 mEq/L | P, Mean (Day 5, group mean, N 4): 7.0 mg/dL | CHOL, % ChVh (Day 19, change vs vehicle): −2.3% | Ca, % ChVh (Day 19, change vs vehicle): −3.2% | Cl, % ChVh (Day 19, change vs vehicle): −1.3% | GLUC, % ChVh (Day 19, change vs vehicle): −7.9% | K, % ChVh (Day 19, change vs vehicle): −9.5% | Na, % ChVh (Day 19, change vs vehicle): 0.0% | Na/K, % ChVh (Day 19, change vs vehicle): 12.9% | P, % ChVh (Day 19, change vs vehicle): 50.0% | CHOL, Mean (Day 19, group mean, N 2): 65.0 mg/dL | Ca, Mean (Day 19, group mean, N 2): 9.2 mg/dL | Cl, Mean (Day 19, group mean, N 2): 114.5 mEq/L | GLUC, Mean (Day 19, group mean, N 2): 240.5 mg/dL | K, Mean (Day 19, group mean, N 2): 3.8 mEq/L | Na, Mean (Day 19, group mean, N 2): 148.0 mEq/L | P, Mean (Day 19, group mean, N 2): 10.2 mg/dL | ALB % ChVh [1]: 3.3% | BASO % % ChVh [1]: −72.7% | BASO (K/uL) % ChVh [1]: −100.0% | BUN % ChVh [1]: 3.0% | Body Weight % ChVh [1]: −3.8% | CRTN % ChVh [1]: 11.1% | EOS % % ChVh [1]: −70.0% | EOS (K/uL) % ChVh [1]: 0.0% | GLOB % ChVh [1]: 5.9% | HCT % % ChVh [1]: 3.4% | HGB % ChVh [1]: 4.4% | LYM % % ChVh [1]: −14.6% | LYM (K/uL) % ChVh [1]: −21.2% | Left Kidney (% body wt) % ChVh [1]: −10.5% | Left Kidney (gm) % ChVh [1]: −12.5% | Liver (% body wt) % ChVh [1]: 2.1% | Liver (gm) % ChVh [1]: −1.6% | MCH % ChVh [1]: 2.5% | MCHC % ChVh [1]: 0.9% | MCV % ChVh [1]: 1.4% | MONO % % ChVh [1]: 21.2% | MONO (K/uL) % ChVh [1]: 8.3% | MPV % ChVh [1]: −5.6% | NEUT % % ChVh [1]: 97.8% | NEUT (K/uL) % ChVh [1]: 87.2% | PLT % ChVh [1]: −29.0% | RBC % ChVh [1]: 1.9% | RDW % % ChVh [1]: −0.6% | Right Kidney (% body wt) % ChVh [1]: −11.6% | Right Kidney (gm) % ChVh [1]: −15.4% | Spleen (% body wt) % ChVh [1]: 17.6% | Spleen (gm) % ChVh [1]: 13.6% | TBIL % ChVh [1]: 0.0% | TP % ChVh [1]: 4.3% | WBC % ChVh [1]: −7.7% | ALP FoldChVh [2]: 1.0 | ALT FoldChVh [2]: 1.3 | AST FoldChVh [2]: 1.2 | ALB [3]: 3.1 g/dL | ALP [3]: 124.3 U/L | ALT [3]: 25.0 U/L | AST [3]: 41.3 U/L | BASO [3]: 0.00 K/uL | BASO % [3]: 0.03% | BUN [3]: 27.3 mg/d L | Body Weight [3]: 16.680 gm | CRTN [3]: 0.20 mg/dL | EOS [3]: 0.01 K/uL | EOS % [3]: 0.06% | GGT [3]: 0.0 U/L | GLOB [3]: 1.8 g/dL | HCT % [3]: 45.6% | HGB [3]: 13.7 g/dL | LYM [3]: 4.31 K/uL | LYM % [3]: 72.97% | MCH [3]: 15.3 pg | MCHC [3]: 30.0 g/dL | MCV [3]: 50.9 fL | MONO [3]: 0.13 K/uL | MONO % [3]: 2.17% | MPV [3]: 4.3 fL | NEUT [3]: 1.46 K/uL | NEUT % [3]: 24.77% | PLT [3]: 725.8 K/uL | RBC [3]: 8.96 M/uL | RDW % [3]: 15.8% | TBIL [3]: 0.18 mg/d L | TP [3]: 4.9 g/dL | WBC [3]: 5.91 K/uL | ALB [4]: 3.3 g/dL and 3.0 g/dL and 2.9 g/dL and 3.1 g/dL | ALP [4]: 116 U/L and 114 U/L and 123 U/L and 144 U/L | ALT [4]: 26 U/L and 20 U/L (2×) and 34 U/L | AST [4]: 51 U/L and 35 U/L (2×) and 44 U/L | BASO [4]: 0.00 K/uL | BASO % [4]: 0.07% and 0.04% and 0.00% (2×) | BUN [4]: 27 mg/d L (2×) and 26 mg/d L and 29 mg/d L | Body Weight [4]: 15.962 gm and 17.217 gm and 17.463 gm and 16.078 gm | CHOL [4]: 68 mg/dL and 66 mg/dL (2×) and 64 mg/dL | CRTN [4]: 0.2 mg/dL | Ca [4]: 8.9 mg/dL and 9.0 mg/dL and 9.3 mg/dL (2×) | Cl [4]: 116 mEq/L and 113 mEq/L (2×) and 114 mEq/L | EOS [4]: 0.00 K/uL (2×) and 0.01 K/uL (2×) | EOS % [4]: 0.01% and 0.14% and 0.00% and 0.10% | GGT [4]: 0 U/L | GLOB [4]: 1.8 g/dL (3×) and 1.9 g/dL | GLUC [4]: 270 mg/dL and 335 mg/dL and 261 mg/dL and 323 mg/dL | HCT % [4]: 48.3% and 45.1% and 43.9% and 45.0% | HGB [4]: 14.3 g/dL and 13.8 g/dL and 13.0 g/dL and 13.5 g/dL | K [4]: 4.6 mEq/L and 4.0 mEq/L and 4.4 mEq/L and 3.9 mEq/L | LYM [4]: 3.64 K/uL and 4.96 K/uL and 3.49 K/uL and 5.13 K/uL | LYM % [4]: 76.21% and 71.86% and 70.06% and 73.76% | Left Kidney [4]: 0.108 gm and 0.133 gm and 0.138 gm and 0.125 gm and 0.75 % body wt and 0.77 % body wt and 0.79 % body wt and 0.78 % body wt | Liver [4]: 0.807 gm and 0.969 gm and 0.914 gm and 0.843 gm and 5.06 % body wt and 5.63 % body wt and 5.23 % body wt and 5.24 % body wt | MCH [4]: 15.4 Pg (2×) and 15.0 Pg and 15.2 Pg | MCHC [4]: 29.6 g/dL (2×) and 30.6 g/dL and 30.0 g/dL | MCV [4]: 51.9 fL and 50.4 fL and 50.5 fL and 50.6 fL | MONO [4]: 0.08 K/uL and 0.24 K/uL and 0.09 K/uL and 0.12 K/uL | MONO % [4]: 1.77% and 3.45% and 1.74% and 1.70% | MPV [4]: 4.3 fL (3×) and 4.1 fL

Source: US20150219624A1, “METHODS FOR IDENTIFYING ANTI-CANCER COMPOUNDS” (MEMORIAL SLOAN KETTERING CANCER CENTER, priority 2013, published 2015)
